Source: patent publication US20190046513A1, “COMBINATION THERAPIES OF HDAC INHIBITORS AND TUBULIN INHIBITORS” (HUYA Bioscience International, LLC, priority 2017, published 2019)
Where a name gives a salt, the structure may show the parent alone.

Tests used:
Assay type in all cases: in vivo, BALB/c mice
[1] = system: 4T1 murine mammary carcinoma cells; assay: Tumor growth delay, subcutaneous 4T1 tumors (Example 1, Study Group A); conditions: for Median TTE: endpoint tumor volume 1000 mm^3, n=10; for % TGD: vs vehicle group
Procedure: (§1) In the present example, HBI-8000 was tested as monotherapy at 50 mg/kg, and in combination with eribulin mesylate at 0.3 mg/kg and 1.0 mg/kg. The experiment included a vehicle-treated group, and eribulin at 0.3 mg/kg and 1.0 mg/kg, which served as the control groups for analysis of efficacy.
Two study groups were used; in the first group (Study Group A) tumor growth inhibition and survival were measured. Tumors were measured twice per week until the study was ended on Day 21. Each animal was euthanized when its tumor attained the endpoint tumor volume of 1000 mm^3 or on the final day of the study, whichever came first, and the time to endpoint (TTE) for each mouse was calculated. Treatment response was determined from an analysis of percent tumor growth delay (% TGD), defined as the percent increase in the median time to endpoint (TTE) for treated versus control mice; and by log-rank significance of differences in survival among groups and regression responses.
Mice: Female BALB/c mice (Charles River Laboratories) were seven weeks old, with a body weight (BW) range of 15.6 to 20.2 grams on Day 1 of the study. The animals were fed ad libitum water (reverse osmosis, 1 ppm Cl), and NIH 31 Modified and Irradiated Lab Diet® consisting of 18.0% crude protein, 5.0% crude fat, and 5.0% crude fiber. The mice were housed on irradiated Enrich-O'Cobs™ Laboratory Animal Bedding in static microisolators on a 12-hour light cycle at 20-22° C. (68-72° F.) and 40-60% humidity.
Tumor Cells: 4T1 murine mammary carcinoma cells were maintained in Dulbecco's Modified Eagle Medium (DMEM) supplemented with 10% fetal bovine serum and 2 mM glutamine, 100 units/mL penicillin G sodium, 100 μg/mL streptomycin sulfate, and 25 μg/mL gentamicin. Cell cultures were maintained in tissue culture flasks in a humidified incubator at 37° C., in an atmosphere of 5% CO2 and 95% air.
(§2) Tumor Implantation: Cells were harvested during exponential growth, and resuspended in cold DMEM. Each mouse was inoculated subcutaneously in the right flank with 1×10^6 4T1 cells (0.1 mL of cell suspension). Tumors were calipered in two dimensions to monitor growth as their mean volume approached the desired 100-150 mm^3 range. Tumor burden was calculated using the formula:
where w=width and 1=length, in mm, of the tumor. Tumor weight may be estimated with the assumption that 1 mg is equivalent to 1 mm^3 of tumor volume. Nine days after tumor implantation, which was designated as Day 1 of the study, animals with individual tumor volumes from 108 to 126 mm^3 were sorted into treatment groups. For Study Group A the animals were sorted into 6 treatment groups (Table 1; n=10/group) with group mean tumor volume of 117 mm^3. For Study Group B the animals were also sorted into 6 treatment groups (Table 1; n=5/group) with group mean tumor volume of 117 mm^3.
Tumor Growth Delay: Tumors were measured using calipers twice per week, and each animal was euthanized when its tumor reached a volume of 1000 mm^3 or at the end of the study (D47), whichever came first. Animals that exited the study for tumor volume endpoint were documented as euthanized for tumor progression (TP), with the date of euthanasia. The time to endpoint (TTE) for analysis was calculated for each mouse by the following equation: […]
where TTE is expressed in days, endpoint volume is expressed in mm^3, b is the intercept, and m is the slope of the line obtained by linear regression of a log-transformed tumor growth data set. The data set consisted of the first observation that exceeded the endpoint volume used in analysis and the three consecutive observations that immediately preceded the attainment of this endpoint volume. The calculated TTE is usually less than the TP date, the day on which the animal was euthanized for tumor burden. […]

[2] = system: 4T1 murine mammary carcinoma cells; assay: Lung metastasis count, 4T1 tumor-bearing mice (Example 1, Study Group B); conditions: Example 1, monotherapies; Day 14
Procedure: as §1
In the second group (Study Group B, tumor-bearing mice were monitored for the development of lung metastases until the number of metastatic nodules reached 30-50 per animal. All animals were euthanized on Day 14, the lungs removed and processed for analysis of metastatic burden.
where w=width and 1=length, in mm, of the tumor. Tumor weight may be estimated with the assumption that 1 mg is equivalent to 1 mm^3 of tumor volume. […]
Lung Metastasis: Animals were sacrificed at endpoint using isoflurane anesthesia and necropsies were performed to identify metastases. […] Percent inhibition was defined as the difference between the number of metastatic foci of the designated control group and the number of metastatic foci of the drug-treated group, expressed as a percentage of the number of metastatic foci of the designated control group: […]
Statistics: Prism (GraphPad) for Windows 6.07 was used for graphical presentations and statistical analyses. […] Logrank analysis includes the data for all animals in a group except those assessed as NTR deaths. […]

[3] = system: 4T1 murine mammary carcinoma cells; assay: Lung metastasis count, 4T1 tumor-bearing mice (Example 2); conditions: HBI-8000 50 mg/kg p.o. qd×16, eribulin 1 mg/kg i.v., Day 18, FIG. 3
Procedure: (§3) In the present example, HBI-8000 was tested as monotherapy at 50 mg/kg, and in combination with eribulin mesylate at 1.0 mg/kg. The experiment included a vehicle-treated group, and eribulin at 1.0 mg/kg, which served as the control groups for analysis of efficacy.
Two study groups were used; in the first group, a sentinel group (termed LOOK-SEE) tumor-bearing mice were monitored for the development of lung metastases until the number of metastatic nodules reached 30-50 per animal. After meeting that criteria, all animals in Group B, the main study group, were euthanized on Day 18, the lungs removed and processed for analysis of metastatic burden.
as §2, with “0.5×10^6” for “1×10^6”
where w=width and 1=length, in mm, of the tumor. Tumor weight may be estimated with the assumption that 1 mg is equivalent to 1 mm3 of tumor volume. […]

[4] = system: 4T1 murine mammary carcinoma cells; assay: Primary tumor volume distribution, 4T1 tumor-bearing mice (Example 2); conditions: HBI-8000 50 mg/kg p.o. qd×16, eribulin 1 mg/kg i.v., FIG. 4
Procedure: as §3
as §2, with “0.5×10^6” for “1×10^6”
where w=width and 1=length, in mm, of the tumor. Tumor weight may be estimated with the assumption that 1 mg is equivalent to 1 mm3 of tumor volume. Fourteen days after tumor implantation, which was designated as Day 1 of the study, animals with individual tumor volumes from animals with individual tumor volumes ranging from 75 to 108 mm3 were sorted into the “LOOK-SEE” group (n=15) and eight efficacy groups (n=10) with group mean tumor volumes of 95 mm3.
Treatment: On Day 1 of the study, mice bearing established 4T1 tumors began dosing according to the treatment plan described below. All agents were administered in dosing volumes of 10 mL/kg; volumes were adjusted according to BW of the individual animal. […]

[5] = HBI-8000 50 mg/kg p.o., qd × 21
[6] = Eribulin mesylate 0.3 mg/kg i.v., qowk × 2
[7] = Eribulin mesylate 1.0 mg/kg i.v., qowk × 2

Nc1cc(F)ccc1NC(=O)c1ccc(CNC(=O)/C=C/c2cccnc2)cc1 [HBI-8000, N-(2-amino-4-fluorophenyl)-4-[[[(2E)-1-oxo-3-(3-pyridinyl)-2-propen-1-yl]amino]methyl]benzamide]
tumor volume distribution ([1]; Example 1, HBI-8000 monotherapy 50 mg/kg, P<0.01): significant ((P<0.01) reduction in the tumor volume distribution
Median TTE [1, 5]: 18.8 days
% TGD [1, 5]: 12%
number of lung metastatic foci [2]: did not significantly inhibit the number of lung metastatic foci
metastatic lung foci [3]: statistically significant (P<0.05) decrease in metastatic lung foci
primary tumor volume distribution [4]: statistically significant (P<0.001) decrease in primary tumor volume distribution compared to vehicle controls

C=C1C[C@@H]2CC[C@@]34C[C@H]5O[C@H]6[C@@H](O3)[C@H]3OC(CC[C@@H]3O[C@H]6C5O4)CC(=O)C[C@@H]3[C@@H](OC)[C@@H](C[C@H](O)CN)O[C@H]3CC3O[C@@H](CCC1O2)C[C@@H](C)C3=C [Eribulin mesylate, 11,15:18,21:24,28 Triepoxy-7,9-ethano-12,15-methano-9H, 15H-furo[3,2-i]furo[2′,3′: 5,6]pyrano[4,3b][1,4]dioxacyclopentacosin-5(4H)-one,2-[(2S)-3-amino-2-hydroxypropyl]hexacosahydro-3 methoxy-26-methyl-20,27-bis(methylene)-, (2R,3R,3aS,7R,8aS,9S,10aR,11S,12R,13aR,13bS,15S,18S,21 S,24S,26R,28R,29aS)-, methanesulfonate (salt)]
Median TTE [1, 6]: 17.8 days
% TGD [1, 6]: 6%
Median TTE [1, 7]: 17.6 days
% TGD [1, 7]: 5%
number of lung metastatic foci [2]: did not significantly inhibit the number of lung metastatic foci
metastatic lung foci [3]: did not produce a statistically significant decrease in metastatic lung foci
primary tumor volume distribution [4]: did not produce a statistically significant decrease in primary tumor volume distribution
